# Results taken from patent US11667631B2, “FGFR4 inhibitor, preparation method therefor, and applications thereof” (Jiangsu Hansoh Pharmaceutical Group Co., Ltd., priority 2016, dated 2023).
# Read-outs that look alike come from different tables or passages of the source.
# Key:
# FGFR4 kinase = FGFR4 kinase (Homo sapiens (Human), UniProt P22455); test: Enzymologic experiment of FGFR4 (TR-FRET); type: biochemical; conditions: FGFR4 kinase activity
# Procedure: In this experiment, the inhibitory effect of the compounds on FGFR4 kinase activity was tested by a fluorescence resonance energy transfer (TR-FRET) method, and the half maximal inhibitory concentration (IC50) of the compounds on the FGFR4 kinase activity was determined.
# 2) 1˜5 μL of diluted solution in gradient of the compound was added.
# 3) 1˜5 μL of a substrate mixture containing substrate polypeptide with a final concentration of 5˜50 nM and ATP with a final concentration of 10˜200 μM was added.
# 4) The mixture was incubated for 0.5˜3 hours at room temperature.
# 5) 10 μL of EDTA and a test solution comprising labeled antibody were added, and the plate was incubated for 1 hour at room temperature.
# 7) The inhibition rates were calculated according to the fluorescence signal values.
# Hep 3B cell line tumor = test: Pharmacodynamics test in vivo, Hep 3B tumor-bearing nude mice; conditions: Mus musculus, Hep3B, oral 30 mg/kg, 2 times/day, read-out: Tumor inhibition rate
# Procedure: a, A Hep 3B cell line was taken from the cell bank, and the cells were resuscitated with the MEM culture medium (MEM+10% FBS+1% Glu+1% SP). The cells were placed in the cell culture bottle after resuscitation (cell type, date, and the name of the culturing person were marked on the bottle wall) and were incubated in a CO2 Incubator (the incubator temperature was 37° C., and the CO2 concentration was 5%).
# b, The cells were passaged after 80-90% of the bottom of the culture bottle was covered by the cells. After passage, the cells were further incubated in the CO2 incubator. The process was repeated until the number of cells met the pharmacodynamic requirements in vivo.
# c, The cultured cells were collected and counted by automatic cell counter. According to the counting results, the cells were resuspended with PBS to prepare a cell suspension (density: 7×10^7/mL), which was placed in the ice box for use.
# a, Nude mouse was marked with a disposable universal ear tag for mouse and rat before inoculation, and the skin of the inoculated site was disinfected with 75% medical alcohol.
# b, At the time of inoculation, the cell suspension was mixed well, 0.1˜1 mL of cell suspension was taken with a 1 mL syringe, after removing air bubbles, and the syringe was placed on an ice bag for use.
# c, The nude mice were inoculated successively (the inoculated site was located on the right shoulder of the right back of the nude mice, and inoculated subcutaneously with 0.1 mL of cell suspension).
# a, Tumor was measured on Day 14 to Day 16 after inoculation depending on the tumor growth, and tumor size was calculated.
# Tumor volume calculation: tumor volume (mm^3)=length (mm)×width (mm)×width (mm)/2
# b, According to the size of the tumor, the mice were grouped by random grouping.
# c, According to the results of the grouping, the test drug was administered (administration method: oral administration, administration dose: 30 mg/kg, administration volume: 10 mL/kg, administration frequency: 2 times/day, […], vehicle: 0.5% CMC/1% Tween 80).
# d, The tumor was measured and weighed twice a week after the test drug was administrated.
# e, Animals were euthanized at the end of the test.
# SK-HEP-1 cells = test: Inhibition of SK-HEP-1 cell proliferation (CellTiter-Glo); type: cell-based; conditions: Homo sapiens, read-out: SK-HEP-1 IC50
# In short: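 Cells seeded and allowed to attach 16–24 h, then exposed to serially diluted compound for 72 h at 37 °C, 5% CO2. Viability read by CellTiter-Glo luminescence; IC50 fitted from inhibition rates across concentrations.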
# [1] = Pharmacokinetic (PK) analysis in rats; type: in vivo, Sprague Dawley (SD) rats; conditions: SD rats, single intragastric administration, 5 mg/kg; for Peak Time tmax: (sampling in hours); for AUC(0-t) / AUC(0-inf) / half-life / MRT / Cmax: Sprague-Dawley, rat, plasma, po; for AUC(0-t): read-out: Area Under Curve AUC0-t; for AUC(0-inf): read-out: Area Under Curve AUC0-∞; for half-life: read-out: Half-Time t1/2 (converted); for MRT: read-out: Mean Residence Time MRT; for Cmax: read-out: Plasma Concentration Cmax
# In short: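 Intravenous blood (0.2 ml) was collected into K2EDTA and centrifuged to obtain plasma. Plasma (40 μL) was protein-precipitated with 160 μL acetonitrile. Compound levels were measured by LC/MS/MS on a C18 column using 0.1% formic acid in water and acetonitrile at 0.8 mL/min.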
# FGFR1 kinase = FGFR1 kinase (Homo sapiens (Human), UniProt P11362); test: Enzymologic experiment of FGFR1 (TR-FRET); type: biochemical; conditions: FGFR1 kinase activity
# In short: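 FGFR1 at 0.1˜5 nM final with substrate peptide 5˜50 nM and ATP 10˜200 μM final, 0.5˜3 h at room temperature. Stopped with EDTA plus labeled antibody for 1 h; TR-FRET signal read at 665 nm, IC50 fitted from inhibition rates.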
# Hep 3B cells = test: Inhibition of Hep 3B cell proliferation (CellTiter-Glo); type: cell-based; conditions: Homo sapiens, Hep3B
# HuH-7 cells = test: Inhibition of HuH-7 cell proliferation (CellTiter-Glo); type: cell-based; conditions: Homo sapiens, read-out: HuH-7 IC50
# In short: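 HuH-7 cells plated and left 16–24 h, then exposed to serially diluted compound for 72 h at 37 °C, 5% CO2. Viability read by CellTiter-Glo luminescence. IC50 obtained by curve fitting of inhibition rates.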
# [2] = 336 h, 14 days of administration
# [3] = SK-HEP1, SK-HEP-1 cell proliferation, 72 hours, CellTiter-Glo
# [4] = Hep 3B cell proliferation, 72 hours, CellTiter-Glo, read-out: Hep 3B IC50
# [5] = HuH-7 cell proliferation, 72 hours, CellTiter-Glo
# [6] = 240 h, 10 days of administration
# [7] = 72 h, read-out: Hep 3B IC50, Hep 3B cell proliferation, 72 hours, CellTiter-Glo
# [8] = 216 h, 9 days of administration
# Chain of FGFR1 kinase (P11362 22-822): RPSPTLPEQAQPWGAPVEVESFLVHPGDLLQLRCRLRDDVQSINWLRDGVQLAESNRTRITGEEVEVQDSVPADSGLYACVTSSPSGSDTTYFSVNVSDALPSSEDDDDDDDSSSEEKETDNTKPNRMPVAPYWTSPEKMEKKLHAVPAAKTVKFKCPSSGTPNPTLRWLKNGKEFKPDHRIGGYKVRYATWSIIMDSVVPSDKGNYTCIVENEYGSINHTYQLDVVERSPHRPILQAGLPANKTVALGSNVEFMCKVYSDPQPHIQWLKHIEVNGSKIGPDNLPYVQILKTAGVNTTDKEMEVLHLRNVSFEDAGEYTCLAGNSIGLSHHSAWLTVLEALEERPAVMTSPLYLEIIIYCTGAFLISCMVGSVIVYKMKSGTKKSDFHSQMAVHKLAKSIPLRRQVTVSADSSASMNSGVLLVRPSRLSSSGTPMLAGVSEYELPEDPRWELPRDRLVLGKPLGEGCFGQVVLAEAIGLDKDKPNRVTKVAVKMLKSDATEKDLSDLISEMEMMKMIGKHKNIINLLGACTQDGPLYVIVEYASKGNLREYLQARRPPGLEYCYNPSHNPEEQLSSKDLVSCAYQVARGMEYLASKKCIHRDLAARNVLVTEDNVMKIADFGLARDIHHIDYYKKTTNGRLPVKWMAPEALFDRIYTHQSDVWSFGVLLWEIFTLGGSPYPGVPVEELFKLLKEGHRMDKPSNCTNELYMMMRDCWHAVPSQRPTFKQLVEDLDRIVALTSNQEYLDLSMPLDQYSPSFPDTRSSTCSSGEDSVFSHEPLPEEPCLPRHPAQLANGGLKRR
# Chain of FGFR4 kinase (P22455 22-802): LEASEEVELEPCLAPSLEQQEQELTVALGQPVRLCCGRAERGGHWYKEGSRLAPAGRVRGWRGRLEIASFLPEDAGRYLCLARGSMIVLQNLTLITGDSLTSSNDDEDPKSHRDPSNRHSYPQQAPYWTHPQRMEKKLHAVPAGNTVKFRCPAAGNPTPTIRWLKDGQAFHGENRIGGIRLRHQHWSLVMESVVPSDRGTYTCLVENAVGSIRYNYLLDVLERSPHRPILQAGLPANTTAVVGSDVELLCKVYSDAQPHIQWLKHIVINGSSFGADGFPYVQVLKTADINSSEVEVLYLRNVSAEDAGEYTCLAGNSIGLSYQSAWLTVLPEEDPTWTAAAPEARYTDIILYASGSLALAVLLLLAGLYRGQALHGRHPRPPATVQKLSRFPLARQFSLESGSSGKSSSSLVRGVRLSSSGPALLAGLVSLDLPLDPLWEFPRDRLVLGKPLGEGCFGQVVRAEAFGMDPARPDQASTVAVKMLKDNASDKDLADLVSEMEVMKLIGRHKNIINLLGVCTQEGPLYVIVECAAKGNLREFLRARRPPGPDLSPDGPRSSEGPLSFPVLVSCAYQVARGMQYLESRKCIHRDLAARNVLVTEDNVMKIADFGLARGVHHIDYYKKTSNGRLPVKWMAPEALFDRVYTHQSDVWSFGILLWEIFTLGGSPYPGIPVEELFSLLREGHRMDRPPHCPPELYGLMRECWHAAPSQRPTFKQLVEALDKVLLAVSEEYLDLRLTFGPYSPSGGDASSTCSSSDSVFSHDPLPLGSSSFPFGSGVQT
IC50 (SK-HEP-1 cells; [3]) [µM],IC50 (HuH-7 cells; [5]) [nM],Mean Residence Time MRT [1] [h],SMILES,IC50 (FGFR4 kinase) [nM],inhibition in vivo at 30 mg/kg (Hep 3B cell line tumor; [2]) [%],Peak Time tmax [1] [h],AUC(0-t) [1] [ng·h/mL],AUC(0-inf) [1] [ng·h/mL],half-life [1] [min],MRT [1] [h],Cmax [1] [ng/mL],IC50 (FGFR1 kinase) [µM],IC50 (Hep 3B cells; [4]) [nM],inhibition in vivo at 30 mg/kg (Hep 3B cell line tumor; [6]) [%],"IC50 (SK-HEP-1 cells; SK-HEP1, 72 h) [µM]",IC50 (Hep 3B cells; [7]) [nM],"IC50 (HuH-7 cells; Huh-7, 72 h) [nM]",inhibition in vivo at 30 mg/kg (Hep 3B cell line tumor; [8]) [%]
> 10,15.2,–,COCCNc1cc(NC(=O)N2CCCc3cc(CN4CCN(C5CC5)CC4=O)c(C=O)nc32)ncc1C#N [Example 65],1.62,130,2,2910,3390,61.2,3.72,3180,> 10,4.3,–,–,–,–,–
–,–,–,"COCCNc1cc(NC(=O)N2CCCc3cc(CN4CCCCOC4=O)c(C=O)nc32)ncc1C#N [Example 23, N-(5-Cyano-4-((2-methoxyethyl)amino)pyridin-2-yl)-7-formyl-6-((2-carbonyl-1,3-oxazepin-3-yl)methyl)-3,4-dihydro-1,8-naphthyridin-1(2H)-carboxamide]",–,–,2,9110,9110,61.2,3.5,2310,–,–,89.8,> 10,4.6,6.7,–
–,–,–,"N#Cc1cnc(NC(=O)N2CCCc3cc(CN4CCOCC4=O)c(C=O)nc32)cc1S[C@@H]1CCOC1 [Example 56, (R)-N-(5-Cyano-4-((tetrahydrofuran-3-yl)thio)pyridin-2-yl)-7-formyl-6-((3-carbonylmorpholino)methyl)-3,4-dihydro-1,8-naphthyridin-1(2H)-carboxamide]",–,–,4,6650,6780,57.6,–,1640,> 10,–,–,> 10,22.7,50.1,46.4
–,–,–,"CO[C@H]1CCC[C@@H]1Nc1cc(NC(=O)N2CCCc3cc(CN4CCOCC4=O)c(C=O)nc32)ncc1C#N [Example 59, N-(5-Cyano-4-(((1S,2S)-2-methoxycyclopentyl)amino)pyridin-2-yl)-7-formyl-6-((3-carbonylmorpholino)methyl)-3,4-dihydro-1,8-naphthyridin-1(2H)-carboxamide]",–,–,2,1260,1260,51.6,2.23,2060,> 10,–,–,> 10,8.6,18.7,86.7
–,–,–,COCCNc1cc(NC(=O)N2CCCc3cc(CN4CCCOCC4=O)c(C=O)nc32)ncc1C#N [Example 6],–,–,2,9120,9140,54,1,3500,> 10,–,–,> 10,1.1,7.4,78.2
–,–,–,"COC1(CNc2cc(NC(=O)N3CCCc4cc(CN5CCCOCC5=O)c(C=O)nc43)ncc2C#N)CC1 [Example 25, N-(5-Cyano-4-(((1-methoxycyclopropyl)methyl)amino)pyridin-2-yl)-7-formyl-6-((3-carbonyl-1,4-oxazepin-4-yl)methyl)-3,4-dihydro-1,8-naphthyridin-1(2H)-carboxamide]",–,–,–,–,–,–,–,–,–,–,68.4,–,–,–,–
> 10,2.6,2.48,COC[C@@H](C)Nc1cc(NC(=O)N2CCCc3cc(CN4CCCCOC4=O)c(C=O)nc32)ncc1C#N [Example 29],–,182,2,9460,9460,76.2,–,3380,–,0.6,–,–,–,–,–
–,–,–,"N#Cc1cnc(NC(=O)N2CCCc3cc(CN4CCOCC4=O)c(C=O)nc32)cc1S[C@H]1CCOC1 [Example 55, (S)-N-(5-Cyano-4-((tetrahydrofuran-3-yl)thio)pyridin-2-yl)-7-formyl-6-((3-carbonylmorpholino)methyl)-3,4-dihydro-1,8-naphthyridin-1(2H)-carboxamide]",–,–,4,1940,1950,47.4,–,2340,> 10,–,–,> 10,14.5,36.1,33

SMILES,IC50 (SK-HEP-1 cells; [3]) [µM],IC50 (HuH-7 cells; [5]) [nM],Mean Residence Time MRT [1] [h],IC50 (FGFR4 kinase) [nM],inhibition in vivo at 30 mg/kg (Hep 3B cell line tumor; [2]) [%],Peak Time tmax [1] [h],AUC(0-t) [1] [ng·h/mL],AUC(0-inf) [1] [ng·h/mL],half-life [1] [min],MRT [1] [h],Cmax [1] [ng/mL],IC50 (FGFR1 kinase) [µM],IC50 (Hep 3B cells; [4]) [nM],inhibition in vivo at 30 mg/kg (Hep 3B cell line tumor; [6]) [%],"IC50 (SK-HEP-1 cells; SK-HEP1, 72 h) [µM]",IC50 (Hep 3B cells; [7]) [nM],"IC50 (HuH-7 cells; Huh-7, 72 h) [nM]",inhibition in vivo at 30 mg/kg (Hep 3B cell line tumor; [8]) [%]
"COC[C@@H](C)Oc1cc(NC(=O)N2CCCc3cc(CN4C(=O)OCC45CC5)c(C=O)nc32)ncc1C#N [Example 42, (R)-N-(5-Cyano-4-((1-methoxypropan-2-yl)oxy)pyridin-2-yl)-7-formyl-6-((5-carbonyl-6-oxa-4-azaspiro[2.4]heptan-4-yl)methyl)-3,4-dihydro-1,8-naphthyridin-1(2H) -carboxamide]",> 10,8.4,–,2.3,103,2,6670,6790,63.6,2.21,2140,> 10,6.7,–,–,–,–,–
